Positions of bridges follow the written chain, without caps; N, C: chain ends. Non-standard residues stand in square brackets, D forms with d. Residues, ends and D or L forms follow the SMILES beside them. Dab = NCC[C@H](N)C(=O)O
Assays:
[1] = Cytotoxicity assay (MTT reduction); type: cell-based; details: human, HELA cells (Acc57), peptides at 12.5, 25 and 50 μM, trend line, read-out: Cyto-toxicity LC50/GI50 Hela cells
Procedure: The cytotoxicity of the peptides to HELA cells (Acc57) and COS-7 cells (CRL-1651) was determined using the MTT reduction assay [see ref. 6 and 7, below]. Briefly the method was as follows: HELA cells and COS-7 cells were seeded at 7.0×10^3 and, respectively, 4.5×10^3 cells per well and grown in 96-well microtiter plates for 24 hours at 37° C. at 5% CO2. At this point, time zero (Tz) was determined by MTT reduction (see below). The supernatant of the remaining wells was discarded, and fresh medium and the peptides in serial dilutions of 12.5, 25 and 50 μM were pipetted into the wells. Each peptide concentration was assayed in triplicate. Incubation of the cells was continued for 48 hours at 37° C. at 5% CO2. Wells were then washed once with PBS and subsequently 100 μl MTT reagent (0.5 mg/mL in medium RPMI1640 and, respectively, DMEM) was added to the wells. This was incubated at 37° C. for 2 hours and subsequently the medium was aspirated and 100 μl isopropanol was added to each well. The absorbance at 595 nm of the solubilized product was measured (OD595peptide). For each concentration averages were calculated from triplicates. The percentage of growth was calculated as follows: (OD595peptide−OD595Tz−OD595Empty well)/(OD595Tz−OD595Empty well)×100% and was plotted for each peptide concentration. […]

[2] = tested on: CCRF-CEM cells, gradient of SDF-1; assay: Chemotactic assay (cell migration assay); type: cell-based; details: 1 nM SDF-1, 4 hours
Procedure: 2.7. Chemotactic Assay (Cell Migration Assay)
The chemotactic response of CCRF-CEM cells to a gradient of stromal cell-derived factor 1α (SDF-1) was measured using disposable assay plates from Neuroprobe (5μ pore size) (Gaithersburg, Md.), according to the manufacturer's directions and references therein [especially ref. 8, below]. Briefly, one […] flask was washed once with Dubecco's phosphate buffered saline (DPBS), and trypsinized for 10 minutes or until cells had lifted. The trypsin was neutralized by the addition of fresh medium containing serum and the cells were pelleted, washed once in DPBS, and resuspended at 1-0.5×10^7 cells/ml in RPMI+0.5% bovine serum albumin (BSA). 45 μl of cell suspension were mixed with 5 μl of 10-fold concentrated PEM peptide diluted in the same assay medium. 35 μl of this mixture were applied to the top of the assay filter. […] The optical absorbance at 595 nm (ABS595) was read using a Tecan Genios plate reader with Magellan software. The number of cells migrated was determined by comparing ABS595 values against a standard curve generated with a known number of cells in the assay plate and were plotted against SDF-1 concentration to obtain a sigmoidal curve and to determine the IC50 values. The values for IC50 were determined using the Trendline function in Microsoft Excel by fitting a logarithmic curve to the averaged datapoints.

[3] = Maximum tolerated dose in mice; type: in vivo, mouse; details: CD1 mice, 120 mg/kg bolus, i.v, ip and sc.
Procedure: 3.1. Maximum Tolerated Dose in Mice
a) The compound of Example 1, dispersed in Water for Injection or 0.9% physiological saline), was administered, in the preliminary study, by i.v. injection at dose levels of 35, 50, 70, 85, 100, 150, 250 or 500 mg/kg to groups consisting of one male and one female mouse (Crl:CD1(ICR)). In addition, two groups comprising two male and two female mice received dose levels of 90 and 100 mg/kg, respectively, and the 50 mg/kg dose level was repeated in a group comprising one male and one female.
b) Maximum tolerated dose studies (MTD) carried out with the compound of Example 2 using CD1 mice (3 mice/group) and was performed using i.v, ip and sc. administration.

human CXCR4 = biological target: T1, human CXCR4 (Homo sapiens, UniProt P61073); assay: Ca2+ assay: CXCR4-antagonizing activity; type: cell-based; details: mouse pre-B cell line 300-19 transfected with human CXCR4; calcium mobilization induced by 10 nM SDF-1; read-out: IC50 (nM) Ca2+ assay
T1 construct: expressed in transfected cells; host or cells: mouse pre-B cell line 300-19
T1 sequence (P61073 whole entry): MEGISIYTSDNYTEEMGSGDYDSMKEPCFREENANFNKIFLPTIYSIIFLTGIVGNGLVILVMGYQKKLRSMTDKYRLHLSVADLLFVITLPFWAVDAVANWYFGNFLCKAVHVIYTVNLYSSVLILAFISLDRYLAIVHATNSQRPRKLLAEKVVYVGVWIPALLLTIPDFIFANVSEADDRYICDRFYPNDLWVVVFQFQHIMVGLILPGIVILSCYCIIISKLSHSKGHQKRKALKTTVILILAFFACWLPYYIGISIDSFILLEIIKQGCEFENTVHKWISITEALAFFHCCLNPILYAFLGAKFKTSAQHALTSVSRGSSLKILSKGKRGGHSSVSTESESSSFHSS
Procedure: 2.2. Ca^2+− Assay: CXCR4-Antagonizing Activity of the Peptides.
Increases in intracellular calcium were monitored using a Flexstation 384 (Molecular Devices, Sunnyvale, Calif.) to assay the peptides for CXCR4 antagonism in a mouse pre-B cell line 300-19 stably transfected with human CXCR4 [see references 1, 2 and 3, below]. The cells were batch loaded with the Calcium 3 Assay kit (Molecular Devices) in assay buffer (Hanks Balanced salt solution, HBSS, 20 mM HEPES, pH 7.4, 0.1% BSA) for 1 h at room temperature and then 200,000 labeled cells were dispensed into black 96 well assays plates (Costar No. 3603). A 20-fold concentrated solution of peptide in assay buffer was added to the cells and the whole plate was centrifuged to settle the cells to the bottom of the wells. Calcium mobilization induced by 10 nM stromal-derived factor-1 (SDF-1) was measured in the Flexstation 384 (excitation, 485 […]) for 90 seconds. A maximal change in fluorescence response above baseline was used to calculate antagonist activity. The data for dose response curves (antagonist concentration versus % maximum response) were fitted to a four parameter logistic equation using SoftmaxPro 4.6 (Molecular Devices), from which IC50% values were calculated.

In the case of `C[C@@H]1NC(=O)[C@H](CO)NC(=O)[C@@H]2CSSC[C@H](NC(=O)[C@H](Cc3ccc(O)cc3)NC(=O)[C@H](CCCNC(=N)N)NC(=O)[C@H](CCN)NC(=O)[C@H]3CCCN3C1=O)C(=O)N[C@@H](Cc1ccc(O)cc1)C(=O)N[C@@H](CCC(N)=O)C(=O)N[C@@H](CCCCN)C(=O)N1CCC[C@@H]1C(=O)N1CCC[C@H]1C(=O)N[C@@H](Cc1ccc(O)cc1)C(=O)N[C@@H](Cc1c[nH]cn1)C(=O)N[C@@H](Cc1ccc(O)cc1)C(=O)N2` [Example 2] (cyclo(YHYCSA[dP][Dab]RYCYQK[dP]P); disulfide 4-11), the CC50 at 48 h [1] is reported as 94000 nM, the IC50 [2] is reported as 0.5 µM and the “survival at highest dose tested” value [3] is reported as “all animals survived”. For the same compound, the “symptoms at highest dose tested” value [3] was “only mild symptoms were observed” and the IC50 (human CXCR4) was 4.1 nM.
